# Measurements reported in PubChem BioAssay (NCI).
#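 The concentration for 50% growth inhibition is given as GI50. At the TGI there is no net growth.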
# Key:
# Experiment in all cases: NCI-60 cell line screen, 384-well format
# NCI-H226 lung = system: NCI-H226 lung
# NCI-H23 lung = system: NCI-H23 lung
# NCI-H322M lung = system: NCI-H322M lung
# NCI-H460 NSCLC = system: NCI-H460 NSCLC
# NCI-H522 lung = system: NCI-H522 lung
# NCI/ADR-RES ovarian = system: NCI/ADR-RES ovarian
# OVCAR-3 ovarian = system: OVCAR-3 ovarian
# OVCAR-4 ovarian = system: OVCAR-4 ovarian
# OVCAR-5 ovarian = system: OVCAR-5 ovarian
# OVCAR-8 ovarian = system: OVCAR-8 ovarian
# PC-3 prostate = system: PC-3 prostate
# RPMI-8226 leukemia = system: RPMI-8226 leukemia
# RXF 393 renal = system: RXF 393 renal
# SF-268 CNS = system: SF-268 CNS
# SF-295 CNS = system: SF-295 CNS
# SF-539 CNS = system: SF-539 CNS
# SK-MEL-28 melanoma = system: SK-MEL-28 melanoma
# SK-MEL-5 melanoma = system: SK-MEL-5 melanoma
# SK-OV-3 ovarian = system: SK-OV-3 ovarian
# SN12C renal = system: SN12C renal
# SNB-19 CNS = system: SNB-19 CNS
# SNB-75 CNS = system: SNB-75 CNS
# SR leukemia = system: SR leukemia
# SW-620 colon = system: SW-620 colon
# T-47D breast = system: T-47D breast
# TK-10 renal = system: TK-10 renal
# UACC-257 melanoma = system: UACC-257 melanoma
# UACC-62 melanoma = system: UACC-62 melanoma
# UO-31 renal = system: UO-31 renal
compound,measurement,setting,value
CCN(CC)CCCC(C)Nc1c2ccc(Cl)cc2nc2ccc(OC)cc12 (configuration not stated),TGI,NCI-H226 lung,2800 nM
same,GI50,NCI-H23 lung,1600 nM
same,TGI,NCI-H23 lung,2960 nM
same,GI50,NCI-H322M lung,1290 nM
same,TGI,NCI-H322M lung,2630 nM
same,GI50,NCI-H460 NSCLC,1100 nM
same,TGI,NCI-H460 NSCLC,2310 nM
same,GI50,NCI-H522 lung,1470 nM
same,TGI,NCI-H522 lung,2800 nM
same,GI50,NCI/ADR-RES ovarian,1550 nM
same,TGI,NCI/ADR-RES ovarian,2940 nM
same,GI50,OVCAR-3 ovarian,1760 nM
same,TGI,OVCAR-3 ovarian,3360 nM
same,GI50,OVCAR-4 ovarian,1550 nM
same,TGI,OVCAR-4 ovarian,2920 nM
same,GI50,OVCAR-5 ovarian,1920 nM
same,TGI,OVCAR-5 ovarian,4160 nM
same,GI50,OVCAR-8 ovarian,1070 nM
same,TGI,OVCAR-8 ovarian,2260 nM
same,GI50,PC-3 prostate,1780 nM
same,TGI,PC-3 prostate,3380 nM
same,GI50,RPMI-8226 leukemia,1490 nM
same,TGI,RPMI-8226 leukemia,2810 nM
same,GI50,RXF 393 renal,668 nM
same,TGI,RXF 393 renal,1980 nM
same,GI50,SF-268 CNS,1640 nM
same,TGI,SF-268 CNS,3060 nM
same,GI50,SF-295 CNS,1740 nM
same,TGI,SF-295 CNS,3140 nM
same,GI50,SF-539 CNS,1120 nM
same,TGI,SF-539 CNS,2330 nM
same,GI50,SK-MEL-28 melanoma,1870 nM
same,TGI,SK-MEL-28 melanoma,3270 nM
same,GI50,SK-MEL-5 melanoma,1960 nM
same,TGI,SK-MEL-5 melanoma,3380 nM
same,GI50,SK-OV-3 ovarian,1200 nM
same,TGI,SK-OV-3 ovarian,2700 nM
same,GI50,SN12C renal,1410 nM
same,TGI,SN12C renal,2860 nM
same,GI50,SNB-19 CNS,1940 nM
same,TGI,SNB-19 CNS,4030 nM
same,GI50,SNB-75 CNS,1330 nM
same,TGI,SNB-75 CNS,2610 nM
same,GI50,SR leukemia,401 nM
same,TGI,SR leukemia,1320 nM
same,GI50,SW-620 colon,1390 nM
same,TGI,SW-620 colon,2940 nM
same,GI50,T-47D breast,1640 nM
same,TGI,T-47D breast,3070 nM
same,GI50,TK-10 renal,1950 nM
same,TGI,TK-10 renal,3690 nM
same,GI50,UACC-257 melanoma,1890 nM
same,TGI,UACC-257 melanoma,3300 nM
same,GI50,UACC-62 melanoma,1690 nM
same,TGI,UACC-62 melanoma,3060 nM
same,GI50,UO-31 renal,1850 nM
same,TGI,UO-31 renal,3730 nM
